The results in this text go back to ChEMBL document CHEMBL1201862, “PubChem BioAssay data set” (2004).

Each structure is given as a SMILES string.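 Compound exposure: 48 hours, 5 concentrations, 96-well plates. GI50: concentration for 50% inhibition of growth.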 The source made the active and inactive calls. No stated cut-off is given here; in the data, active = GI50 up to about 1.1 µM and inactive = higher. Numbered stars: 1 amine (or outer) side, 2 acyl side, 3 side chain; on linkers, the order of the positions; unused ones are H or OH. Bridge positions count the residues as written; N and C are the ends. Square brackets hold non-standard residues; d marks the D form. Peptide text beside a SMILES is read from it. I, II: the chains in the order shown. Actinocin(9to1) = Cc1c2oc3c(C)ccc(C(=O)[*:1])c3nc-2c(C(=O)[*:2])c(N)c1=O; NMeH = CN[CH](Cc1c[nH]cn1)C(=O)O; Sar = CNCC(=O)O Some results are limits rather than exact numbers.

Test in all cases: inhibition of tumour cell growth, NCI panel, 48 h
In assay [1] the test system is K562.
The test system of assay [2] is MDA-MB-231.
For assay [3], the system named is TK-10.
The subject of assay [4] is ACHN.
Assay [5] deals with MCF7.
The test system of assay [6] is SK-MEL-28.
In assay [7] the test system is SK-MEL-5.
The test system of assay [8] is MDA-MB-435.
The subject of assay [9] is OVCAR-5.
Assay [10] concerns KM12.
Assay [11] has as its system OVCAR-8.
In assay [12] the test system is SNB-19.
Assay [13] has as its system DU-145.
In assay [14] the test system is NCI-H226.
Assay [15] deals with LOX IMVI.
Assay [16] concerns Hs-578T.
In assay [17] the test system is UACC-257.
Assay [18] deals with SK-MEL-2.
Assay [19] concerns RXF 393.
The test system of assay [20] is SW-620.

`COc1ccc2c(c1)nc1n2C(c2c(Cl)cccc2Cl)SC1` (centres undefined): the GI50 in assay [1] was > 100 µM (inactive); in assay [2], 29.3 µM (inactive); in [3] it was > 58.6 µM (inactive); in [4] it was 40.8 µM (inactive); in [5], 5.68 µM (inactive); in [6], 25.9 µM (inactive). In addition, the GI50 is 5.02 µM (inactive) in assay [7]; 2.59 µM (inactive) in [8]; > 67.8 µM (inactive) in assay [9]; 12.4 µM (inactive) in [10]; > 61 µM (inactive) in assay [11]; > 33.5 µM (inactive) in [12]. In addition, the GI50 was 22.3 µM (inactive) in assay [13]; > 21.8 µM (inactive) in [14]; 25.8 µM (inactive) in [15]; 5.45 µM (inactive) in assay [16]; 37.8 µM (inactive) in [17]; > 20.7 µM (inactive) in assay [18].
For `CNc1nc(SC)nc2c1c(N)nn2C`, the GI50 in [1], in assay [2], in assay [19], in assay [3], in assay [4] and in assay [6] was > 100 µM (inactive) in each case. Also, the GI50 in assay [7], in assay [8], in assay [9], in [10], in assay [11] and in assay [12] was > 100 µM (inactive) each time. For the same molecule, the GI50 in assay [13] was > 100 µM (inactive); in assay [14] it was > 100 µM (inactive); in assay [15], > 100 µM (inactive); in [20] it was > 100 µM (inactive); in [16], 95.3 µM (inactive); in [17], > 100 µM (inactive). Further, the GI50 in assay [18] is > 100 µM (inactive).
Regarding `Cc1c2oc3c(C)ccc(C(=O)NC4C(=O)NC(C(C)C)C(=O)N5CCCC5C(=O)N(C)CC(=O)N(C)C(Cc5cnc[nH]5)C(=O)OC4C)c3nc-2c(C(=O)NC2C(=O)NC(C(C)C)C(=O)N3CCCC3C(=O)N(C)CC(=O)N(C)C(Cc3cnc[nH]3)C(=O)OC2C)c(N)c1=O` (centres undefined) (I: TVP[Sar][NMeH] / II: TVP[Sar][NMeH]; ester I:1-I:C, II:1-II:C; linker I:N-II:N via Actinocin(9to1); configuration not given here), the GI50 was 39.4 µM (inactive) in [1]; > 100 µM (inactive) in assay [2]; 14.7 µM (inactive) in [19]; > 100 µM (inactive) in assay [3]; 51.3 µM (inactive) in assay [4]; 30.4 µM (inactive) in [5]. The GI50 in [6] was 39.4 µM (inactive); in assay [7], 16.9 µM (inactive); in [8], 63.4 µM (inactive); in assay [9], > 100 µM (inactive); in assay [10], 62.1 µM (inactive); in assay [11], > 100 µM (inactive). Further, the GI50 in assay [12] is 45 µM (inactive); in [14], 56.2 µM (inactive); in assay [15], 20.2 µM (inactive); in [20] it was 27.4 µM (inactive); in [16] it was 1 µM (active); in assay [17], > 100 µM (inactive). The GI50 in assay [18] was 26.3 µM (inactive).
With `Cc1cc(NCCCCCCCNc2cc(C)nc3cc([N+](=O)[O-])ccc23)c2ccc([N+](=O)[O-])cc2n1`, the GI50 in assay [1] is 1.28 µM (inactive); in [2], 2.47 µM (inactive); in assay [19], 8.18 µM (inactive); in [3], 17.7 µM (inactive); in [4] it was 12.7 µM (inactive); in [6], 4.34 µM (inactive). For the same molecule, the GI50 in assay [7] is 6.43 µM (inactive); in [8], 11.7 µM (inactive); in [9] it was 15.6 µM (inactive); in assay [10], 1.85 µM (inactive); in assay [11], 1.87 µM (inactive); in assay [12] it was 10.3 µM (inactive). In addition, the GI50 in assay [13] is 3.08 µM (inactive); in assay [14], 18 µM (inactive); in assay [15], 2 µM (inactive); in [20], 2.1 µM (inactive); in assay [16] it was 1.86 µM (inactive); in assay [17], 15.1 µM (inactive). Further, the GI50 in assay [18] is 24.7 µM (inactive).
Consider `O=[N+]([O-])c1ccc(-n2nc3ccc4nonc4c3n2)cc1`, for which the GI50 in assay [1] is > 100 µM (inactive); in [2], > 100 µM (inactive); in assay [3], 18.4 µM (inactive); in assay [4], 41.3 µM (inactive); in [5], 20.4 µM (inactive); in assay [6] it was 46.2 µM (inactive). In addition, the GI50 in [7] is 31.2 µM (inactive); in assay [8], > 100 µM (inactive); in assay [9], > 100 µM (inactive); in assay [10], 94.8 µM (inactive); in assay [12], 25.4 µM (inactive); in [13] it was 79.6 µM (inactive). In addition, the GI50 was 17.8 µM (inactive) in assay [14]; 42.4 µM (inactive) in [15]; > 100 µM (inactive) in [20]; 13.3 µM (inactive) in assay [16]; > 100 µM (inactive) in assay [17]; 47.9 µM (inactive) in [18].
Turning to `Cc1cccc(N(C(=O)Nc2ccc(Cl)c(Cl)c2)C2=NCC(C)S2)c1` (centres undefined), the GI50 in [1] is 24.8 µM (inactive); in assay [2] it was 29.8 µM (inactive); in [3] it was 23.8 µM (inactive); in [4] it was 50.1 µM (inactive); in [5], 17 µM (inactive); in assay [6], 38.6 µM (inactive). In addition, the GI50 in [7] was 17.5 µM (inactive); in assay [9], > 100 µM (inactive); in assay [10], 18.9 µM (inactive); in assay [11], 60.4 µM (inactive); in assay [12], > 100 µM (inactive); in [13] it was > 100 µM (inactive). Further, the GI50 in [15] was 18.3 µM (inactive); in assay [20], 32.1 µM (inactive); in [16], 32.5 µM (inactive); in assay [17], 42.9 µM (inactive); in [18], 23.8 µM (inactive).
As for `Cc1nc(C(N)=S)sc1C(=O)CC(=O)C(=O)Nc1cccc(Cl)c1C`, the GI50 in assay [1], in assay [2], in assay [19], in [3], in assay [4] and in assay [5] was > 100 µM (inactive) throughout. Further, the GI50 in assay [6], in [7], in [8], in assay [9], in assay [10] and in assay [11] was > 100 µM (inactive) each time. Also, the GI50 in assay [12], in assay [14], in assay [15], in assay [20], in assay [16] and in assay [17] was > 100 µM (inactive) throughout. Besides, the GI50 in assay [18] is > 100 µM (inactive).
